Measured values from patent publication US11180494B2, “Substituted amino acids as integrin inhibitors” (Pliant Therapeutics, Inc., priority 2018, dated 2021).

Target: human integrin αvβ6 (Homo sapiens (Human), UniProt P06756+P18564)
Assay: Proximity-based integrin receptor binding assay (ALPHASCREEN) for inhibitor potency
Conditions: inhibition of binding of TGF-b1 LAP to human integrin αvβ6; values given in ranges
In short: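 AlphaScreen: integrin, compound, TGF-b1 LAP, biotinylated anti-LAP antibody and acceptor beads incubated 2 hours, then streptavidin donor beads 30 minutes, at room temperature in 50 mM Tris-HCl pH 7.5, 0.1% BSA, 1 mM CaCl2 and MgCl2. Excitation 680 nm, emission 520-620 nm; IC50 by four-parameter logistic fit.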

human integrin αvβ6, sequence (P06756 31-992): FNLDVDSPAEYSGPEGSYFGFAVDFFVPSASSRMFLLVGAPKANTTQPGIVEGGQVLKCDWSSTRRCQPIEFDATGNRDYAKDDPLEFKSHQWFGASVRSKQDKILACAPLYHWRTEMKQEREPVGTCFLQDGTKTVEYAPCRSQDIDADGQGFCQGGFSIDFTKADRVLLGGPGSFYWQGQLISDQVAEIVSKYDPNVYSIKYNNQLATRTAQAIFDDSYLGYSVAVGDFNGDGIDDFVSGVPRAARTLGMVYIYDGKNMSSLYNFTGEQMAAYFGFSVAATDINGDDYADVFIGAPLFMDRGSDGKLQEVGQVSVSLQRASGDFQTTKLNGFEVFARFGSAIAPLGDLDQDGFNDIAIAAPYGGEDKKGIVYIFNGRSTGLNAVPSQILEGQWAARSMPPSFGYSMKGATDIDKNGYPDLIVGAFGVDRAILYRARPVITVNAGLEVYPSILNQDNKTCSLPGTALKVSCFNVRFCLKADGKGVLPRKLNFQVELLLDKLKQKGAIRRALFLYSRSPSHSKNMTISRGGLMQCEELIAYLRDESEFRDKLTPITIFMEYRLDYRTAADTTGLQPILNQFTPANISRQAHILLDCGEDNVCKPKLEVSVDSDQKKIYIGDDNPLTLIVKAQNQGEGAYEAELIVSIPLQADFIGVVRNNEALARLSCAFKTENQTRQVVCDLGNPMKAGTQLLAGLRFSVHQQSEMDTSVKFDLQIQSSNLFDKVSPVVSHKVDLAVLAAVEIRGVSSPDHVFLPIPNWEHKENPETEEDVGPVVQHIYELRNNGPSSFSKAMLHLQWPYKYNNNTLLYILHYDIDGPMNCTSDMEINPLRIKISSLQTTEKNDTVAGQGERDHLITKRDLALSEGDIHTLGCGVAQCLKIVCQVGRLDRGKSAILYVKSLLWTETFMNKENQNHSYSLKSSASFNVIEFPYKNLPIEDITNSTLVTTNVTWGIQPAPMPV
human integrin αvβ6, sequence (P18564 22-707): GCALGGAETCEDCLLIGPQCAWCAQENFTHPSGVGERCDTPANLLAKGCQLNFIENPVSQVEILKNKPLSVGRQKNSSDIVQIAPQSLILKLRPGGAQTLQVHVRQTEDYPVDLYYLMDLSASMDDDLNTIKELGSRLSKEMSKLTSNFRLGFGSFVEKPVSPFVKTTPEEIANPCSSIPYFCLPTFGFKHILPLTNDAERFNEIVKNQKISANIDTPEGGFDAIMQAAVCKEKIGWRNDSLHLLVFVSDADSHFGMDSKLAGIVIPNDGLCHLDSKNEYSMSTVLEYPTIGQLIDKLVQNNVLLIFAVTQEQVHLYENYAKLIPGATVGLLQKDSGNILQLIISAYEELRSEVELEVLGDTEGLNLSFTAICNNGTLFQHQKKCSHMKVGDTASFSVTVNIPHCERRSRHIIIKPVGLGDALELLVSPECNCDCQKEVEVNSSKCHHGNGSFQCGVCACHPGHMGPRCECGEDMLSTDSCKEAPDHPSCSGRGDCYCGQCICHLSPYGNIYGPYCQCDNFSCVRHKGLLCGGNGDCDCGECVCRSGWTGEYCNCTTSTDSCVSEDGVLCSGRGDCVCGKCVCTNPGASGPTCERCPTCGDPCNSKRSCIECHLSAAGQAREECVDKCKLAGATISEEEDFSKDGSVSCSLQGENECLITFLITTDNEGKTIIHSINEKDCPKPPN

Compared with `COCC(C)(C)C(=O)NC(CCO[C@H]1C[C@H](CCc2ccc3c(n2)NCCC3)C1)C(=O)O` (stereo partly drawn) [Compound 90, N-(3-methoxy-2,2-dimethylpropanoyl)-O-(trans-3-(2-(5,6,7,8-tetrahydro-1,8-naphthyridin-2-yl)ethyl)cyclobutyl)homoserine], `CC(C)(C)OC(=O)NC(CCO[C@H]1C[C@H](CCc2ccc3c(n2)NCCC3)C1)C(=O)O` (stereo partly drawn) [Example 12A, N-(tert-butoxycarbonyl)-O-(trans-3-(2-(5,6,7,8-tetrahydro-1,8-naphthyridin-2-yl)ethyl)cyclobutyl)homoserine] is lower in IC50: 250 to 1000 nM for the first, 50 to 250 nM for the second.

`O=C(NC(CCO[C@H]1C[C@H](CCc2ccc3c(n2)NCCC3)C1)C(=O)O)C1Cc2ccccc2C1` (stereo partly drawn) [Compound 107, N-(2,3-dihydro-1H-indene-2-carbonyl)-O-(trans-3-(2-(5,6,7,8-tetrahydro-1,8-naphthyridin-2-yl)ethyl)cyclobutyl)homoserine] and `O=C(N[C@@H](CCO[C@H]1C[C@H](CCc2ccc3c(n2)NCCC3)C1)C(=O)O)c1ccccc1Cl` [Compound 21, N-(2-chlorobenzoyl)-O-(trans-3-(2-(5,6,7,8-tetrahydro-1,8-naphthyridin-2-yl)ethyl)cyclobutyl)homoserine] cannot be ordered by IC50: under 50 nM for the first, under 50 nM for the second.

`O=C(N[C@@H](CCO[C@H]1C[C@H](CCc2ccc3c(n2)NCCC3)C1)C(=O)O)c1c(F)cccc1Cl` [Compound 31, N-(2-chloro-6-fluorobenzoyl)-O-(trans-3-(2-(5,6,7,8-tetrahydro-1,8-naphthyridin-2-yl)ethyl)cyclobutyl)homoserine] and `O=C(NC(CCO[C@H]1C[C@H](CCc2ccc3c(n2)NCCC3)C1)C(=O)O)c1cccc(F)c1Cl` (stereo partly drawn) [Compound 64, N-(2-chloro-3-fluorobenzoyl)-O-(trans-3-(2-(5,6,7,8-tetrahydro-1,8-naphthyridin-2-yl)ethyl)cyclobutyl)homoserine] cannot be ordered by IC50: under 50 nM for the first, under 50 nM for the second.

First: O=C(O)C(CCO[C@H]1C[C@H](CCc2ccc3c(n2)NCCC3)C1)NC(=O)[C@@H](O)c1ccccc1 (stereo partly drawn) [Compound 78, N—((S)-2-hydroxy-2-phenylacetyl)-O-(trans-3-(2-(5,6,7,8-tetrahydro-1,8-naphthyridin-2-yl)ethyl)cyclobutyl)homoserine]
Second: C[C@@H](OC(=O)N[C@@H](CCO[C@H]1C[C@H](CCc2ccc3c(n2)NCCC3)C1)C(=O)O)c1ccccc1 [Compound 140, N—(((R)-1-phenylethoxy)carbonyl)-O-(trans-3-(2-(5,6,7,8-tetrahydro-1,8-naphthyridin-2-yl)ethyl)cyclobutyl)homoserine]
The IC50 of the first is higher: over 1000 nM for the first, 250 to 1000 nM for the second. The second is the more potent here.

Compared with `CCC(CC(F)F)C(=O)NC(CCO[C@H]1C[C@H](CCc2ccc3c(n2)NCCC3)C1)C(=O)O` (single isomer, unassigned) [Example 162b, N-(-2-ethyl-4,4-difluorobutanoyl)-O-(trans-3-(2-(5,6,7,8-tetrahydro-1,8-naphthyridin-2-yl)ethyl)cyclobutyl)homoserine], `CCC(CC)CC(=O)N[C@@H](CCO[C@H]1C[C@@H](CCc2ccc3c(n2)NCCC3)C1)C(=O)O` [Compound 67, N-(3-ethylpentanoyl)-O-(cis-3-(2-(5,6,7,8-tetrahydro-1,8-naphthyridin-2-yl)ethyl)cyclobutyl)homoserine] is higher in IC50: under 50 nM for the first, 50 to 250 nM for the second. The first is the more potent here.

`O=C(N[C@@H](CCO[C@H]1C[C@H](CCc2ccc3c(n2)NCCC3)C1)C(=O)O)c1ccccc1F` [Compound 22, N-(2-fluorobenzoyl)-O-(trans-3-(2-(5,6,7,8-tetrahydro-1,8-naphthyridin-2-yl)ethyl)cyclobutyl)homoserine] and `O=C(N[C@@H](CCO[C@H]1C[C@H](CCc2ccc3c(n2)NCCC3)C1)C(=O)O)c1cccc(Cl)c1F` [Compound 27, N-(3-chloro-2-fluorobenzoyl)-O-(trans-3-(2-(5,6,7,8-tetrahydro-1,8-naphthyridin-2-yl)ethyl)cyclobutyl)homoserine] cannot be ordered by IC50: under 50 nM for the first, under 50 nM for the second.

First: O=C(NC(CCO[C@H]1C[C@H](CCc2ccc3c(n2)NCCC3)C1)C(=O)O)C1Cc2ccccc2C1 (stereo partly drawn) [Compound 92, N-(2,3-dihydro-1H-indene-2-carbonyl)-O-(trans-3-(2-(5,6,7,8-tetrahydro-1,8-naphthyridin-2-yl)ethyl)cyclobutyl)homoserine]
Second: O=C(N[C@@H](CCO[C@H]1C[C@H](CCc2ccc3c(n2)NCCC3)C1)C(=O)O)c1cccc(F)c1 [Compound 19, N-(3-fluorobenzoyl)-O-(trans-3-(2-(5,6,7,8-tetrahydro-1,8-naphthyridin-2-yl)ethyl)cyclobutyl)homoserine]
The IC50 of the first is higher: 250 to 1000 nM for the first, under 50 nM for the second.

Compared with `O=C(N[C@@H](CCO[C@H]1C[C@H](CCc2ccc3c(n2)NCCC3)C1)C(=O)O)C1CCCc2cn[nH]c21` (relative stereo) [Compound 177, O-(trans-3-(2-(5,6,7,8-tetrahydro-1,8-naphthyridin-2-yl)ethyl)cyclobutyl)-N-(4,5,6,7-tetrahydro-1H-indazole-7-carbonyl)homoserine], `CC1(OC(=O)N[C@@H](CCO[C@H]2C[C@H](CCc3ccc4c(n3)NCCC4)C2)C(=O)O)CCC1` [Compound 114, N-((1-methylcyclobutoxy)carbonyl)-O-(trans-3-(2-(5,6,7,8-tetrahydro-1,8-naphthyridin-2-yl)ethyl)cyclobutyl)homoserine] is lower in IC50: 50 to 250 nM for the first, under 50 nM for the second.

Compared with `O=C(N[C@@H](CCO[C@H]1C[C@H](CCc2ccc3c(n2)NCCC3)C1)C(=O)O)c1cccc(Cl)c1Cl` [Compound 30, N-(2,3-dichlorobenzoyl)-O-(trans-3-(2-(5,6,7,8-tetrahydro-1,8-naphthyridin-2-yl)ethyl)cyclobutyl)homoserine], `O=C(N[C@@H](CCO[C@H]1C[C@H](CCc2ccc3c(n2)NCCC3)C1)C(=O)O)c1cccc2cccnc12` [Compound 55, N-(quinoline-8-carbonyl)-O-(trans-3-(2-(5,6,7,8-tetrahydro-1,8-naphthyridin-2-yl)ethyl)cyclobutyl)homoserine] is higher in IC50: under 50 nM for the first, 250 to 1000 nM for the second. The first is the more potent here.

First: O=C(N[C@@H](CCO[C@H]1C[C@H](CCc2ccc3c(n2)NCCC3)C1)C(=O)O)O[C@H]1CC[C@@H](c2ccccc2)CC1 [Compound 149, N-(((cis-4-phenylcyclohexyl)oxy)carbonyl)-O-(trans-3-(2-(5,6,7,8-tetrahydro-1,8-naphthyridin-2-yl)ethyl)cyclobutyl)homoserine]
Second: O=C(N[C@@H](CCO[C@H]1C[C@H](CCc2ccc3c(n2)NCCC3)C1)C(=O)O)O[C@@H]1CCCC[C@H]1c1ccccc1 [Compound 144, N-((((1R,2S)-2-phenylcyclohexyl)oxy)carbonyl)-O-(trans-3-(2-(5,6,7,8-tetrahydro-1,8-naphthyridin-2-yl)ethyl)cyclobutyl)homoserine]
The IC50 of the first is lower: 50 to 250 nM for the first, 250 to 1000 nM for the second.

Compared with `CC(C)(C)OC(=O)N1CC[C@@H](OC(=O)N[C@@H](CCO[C@H]2C[C@H](CCc3ccc4c(n3)NCCC4)C2)C(=O)O)C1` [Compound 138, N—((((R)-1-(tert-butoxycarbonyl)pyrrolidin-3-yl)oxy)carbonyl)-O-(trans-3-(2-(5,6,7,8-tetrahydro-1,8-naphthyridin-2-yl)ethyl)cyclobutyl)homoserine], `CC(C)(C)OC(=O)NC(CCO[C@H]1C[C@H](CCc2ccc3c(n2)NCCC3)C1)C(=O)O` (stereo partly drawn) [Compound 86, N-(tert-butoxycarbonyl)-O-(trans-3-(2-(5,6,7,8-tetrahydro-1,8-naphthyridin-2-yl)ethyl)cyclobutyl)homoserine] is higher in IC50: 50 to 250 nM for the first, 250 to 1000 nM for the second.

First: O=C(N[C@@H](CCO[C@H]1C[C@H](CCc2ccc3c(n2)NCCC3)C1)C(=O)O)c1ccc2cccnc2c1 [Compound 53, N-(quinoline-7-carbonyl)-O-(trans-3-(2-(5,6,7,8-tetrahydro-1,8-naphthyridin-2-yl)ethyl)cyclobutyl)homoserine]
Second: CC(C)(C(=O)NC(CCO[C@H]1C[C@H](CCc2ccc3c(n2)NCCC3)C1)C(=O)O)c1cccnc1 (stereo partly drawn) [Compound 106, N-(2-methyl-2-(pyridin-3-yl)propanoyl)-O-(trans-3-(2-(5,6,7,8-tetrahydro-1,8-naphthyridin-2-yl)ethyl)cyclobutyl)homoserine]
The IC50 of the first is higher: 50 to 250 nM for the first, under 50 nM for the second.

Compared with `CCN(CC)C(=O)N[C@@H](CCO[C@H]1C[C@H](CCc2ccc3c(n2)NCCC3)C1)C(=O)O` [Compound 117, N-(diethylcarbamoyl)-O-(trans-3-(2-(5,6,7,8-tetrahydro-1,8-naphthyridin-2-yl)ethyl)cyclobutyl)homoserine], `O=C(N[C@@H](CCO[C@H]1C[C@H](CCc2ccc3c(n2)NCCC3)C1)C(=O)O)O[C@H]1CCCC[C@@H]1c1ccccc1` [Compound 146, N-((((1S,2R)-2-phenylcyclohexyl)oxy)carbonyl)-O-(trans-3-(2-(5,6,7,8-tetrahydro-1,8-naphthyridin-2-yl)ethyl)cyclobutyl)homoserine] is higher in IC50: under 50 nM for the first, 50 to 250 nM for the second.

For `CC1(C(=O)NC(CCOCCCCc2ccc3c(n2)NCCC3)C(=O)O)CCOCC1` (centres unmarked) [Compound 187, N-(4-methyltetrahydro-2H-pyran-4-carbonyl)-O-(4-(5,6,7,8-tetrahydro-1,8-naphthyridin-2-yl)butyl)homoserine], the IC50 was 250 to 1000 nM.

Same assay, conditions: inhibition of binding of TGF-b1 LAP to human integrin αvβ6; values given in ranges; listed as 61*

For `O=C(NC(CCO[C@H]1C[C@H](CCc2ccc3c(n2)NCCC3)C1)C(=O)O)c1cccc(-c2cncs2)c1` (stereo partly drawn) [Compound 61, O-(trans-3-(2-(5,6,7,8-tetrahydro-1,8-naphthyridin-2-yl)ethyl)cyclobutyl)-N-(3-(thiazol-5-yl)benzoyl)homoserine], the IC50 was over 1000 nM.

Same assay, conditions: inhibition of binding of TGF-b1 LAP to human integrin αvβ6; values given in ranges; listed as 83*

Work on `CC(C)(C(=O)NC(CCO[C@H]1C[C@H](CCc2ccc3c(n2)NCCC3)C1)C(=O)O)c1ccccc1` (stereo partly drawn) [Compound 83, N-(2-methyl-2-phenylpropanoyl)-O-(trans-3-(2-(5,6,7,8-tetrahydro-1,8-naphthyridin-2-yl)ethyl)cyclobutyl)homoserine] yielded an IC50 of over 1000 nM.
